Data reported in patent US9999622B2, “Pyrazolothiazole compound and medicine comprising same” (NIPPON SHINYAKU CO., LTD., priority 2014, dated 2018).

Tests used:
Assay type in all cases: biochemical
JAK1 = target: T1, JAK1 (Homo sapiens, UniProt P23458); assay: JAK tyrosine kinase inhibitory activity in the presence of 1 mM ATP (ELISA), JAK1
T1 construct: purchased Carna Biosciences, Inc
Description: (§1) 1. Preparation of Test Compound
(§2) The test compound was dissolved in dimethyl sulfoxide (DMSO) to 10 mM and further diluted with DMSO to the concentrations of 1000, 100, 10, 1, 0.1 and 0.01 μM, respectively. For JAK1, these solutions of the test compound at the six concentrations 10 mM, 1000 μM, 100 μM, 10 μM, 1 μM and 0.1 μM were used. For JAK2 and JAK3, these solutions of the test compound at the six concentrations 1000 μM, 100 μM, 10 μM, 1 μM, 0.1 μM and 0.01 μM were used. The test compound solutions were diluted further to 20-fold with an assay buffer to obtain a sample solution. 15 mM Tris-HCl (pH7.5), 0.01 (v/v) % Tween-20 and 1 mM dithiothreitol were used as an assay buffer. DMSO was diluted to 20-fold with the assay buffer and was used as a negative control.
(§3) 2. JAK Tyrosine Kinase Inhibitory Activity in the Presence of 1 mM Atp
(§4) The activity was determined by ELISA method. Each of the sample solutions was added to a streptavidine coated 96-well plate (DELFIA Strip Plate 8×12 well, PerkinElmer) at 10 μL/well (n=2). […] Finally, JAK tyrosine kinase (Carna Biosciences, Inc.), which was previously diluted with the assay buffer to 7.5 nM for JAK1 and 0.75 nM for JAK2 and JAK3, was added to the plate at 20 μL/well, and the plate was incubated at 30° C. for 1 h. The plate was washed four times with buffer (50 mM Tris-HCl (pH 7.5), 150 mM NaCl, 0.02 (v/v) % Tween-20). A blocking buffer (0.1% Bovine Serum Albumin, 50 mM Tris-HCl (pH 7.5), 150 mM NaCl, 0.02 (v/v) % Tween-20) was added to the plate at 150 μL/well and the plate was blocked at 30° C. for 1 h. The blocking buffer was removed, and a horse radish peroxidase-labeled anti-phosphorylated tyrosine antibody (BD Biosciences, Inc.) (diluted to 10000-fold with the blocking buffer) was added to the plate at 100 μL/well, and the plate was incubated at 30° C. for 30 min. The plate was washed with the washing buffer four times, and 3,3′,5,5′-tetramethylbenizidine solution (Nacalai Tesque) was added to the plate at 100 μL/well to develop the color for 10 minutes. To the plate was added 0.1 M sulfuric acid at 100 μL/well to stop the reaction. The absorbance at 450 nm was measured using a microplate reader (BIO-RAD).
(§5) 3. Analysis of the Results

JAK2 = target: T2, JAK2 (Homo sapiens, UniProt O60674); assay: JAK tyrosine kinase inhibitory activity in the presence of 1 mM ATP (ELISA), JAK2
T2 construct: purchased Carna Biosciences, Inc
T2 sequence (O60674 whole entry): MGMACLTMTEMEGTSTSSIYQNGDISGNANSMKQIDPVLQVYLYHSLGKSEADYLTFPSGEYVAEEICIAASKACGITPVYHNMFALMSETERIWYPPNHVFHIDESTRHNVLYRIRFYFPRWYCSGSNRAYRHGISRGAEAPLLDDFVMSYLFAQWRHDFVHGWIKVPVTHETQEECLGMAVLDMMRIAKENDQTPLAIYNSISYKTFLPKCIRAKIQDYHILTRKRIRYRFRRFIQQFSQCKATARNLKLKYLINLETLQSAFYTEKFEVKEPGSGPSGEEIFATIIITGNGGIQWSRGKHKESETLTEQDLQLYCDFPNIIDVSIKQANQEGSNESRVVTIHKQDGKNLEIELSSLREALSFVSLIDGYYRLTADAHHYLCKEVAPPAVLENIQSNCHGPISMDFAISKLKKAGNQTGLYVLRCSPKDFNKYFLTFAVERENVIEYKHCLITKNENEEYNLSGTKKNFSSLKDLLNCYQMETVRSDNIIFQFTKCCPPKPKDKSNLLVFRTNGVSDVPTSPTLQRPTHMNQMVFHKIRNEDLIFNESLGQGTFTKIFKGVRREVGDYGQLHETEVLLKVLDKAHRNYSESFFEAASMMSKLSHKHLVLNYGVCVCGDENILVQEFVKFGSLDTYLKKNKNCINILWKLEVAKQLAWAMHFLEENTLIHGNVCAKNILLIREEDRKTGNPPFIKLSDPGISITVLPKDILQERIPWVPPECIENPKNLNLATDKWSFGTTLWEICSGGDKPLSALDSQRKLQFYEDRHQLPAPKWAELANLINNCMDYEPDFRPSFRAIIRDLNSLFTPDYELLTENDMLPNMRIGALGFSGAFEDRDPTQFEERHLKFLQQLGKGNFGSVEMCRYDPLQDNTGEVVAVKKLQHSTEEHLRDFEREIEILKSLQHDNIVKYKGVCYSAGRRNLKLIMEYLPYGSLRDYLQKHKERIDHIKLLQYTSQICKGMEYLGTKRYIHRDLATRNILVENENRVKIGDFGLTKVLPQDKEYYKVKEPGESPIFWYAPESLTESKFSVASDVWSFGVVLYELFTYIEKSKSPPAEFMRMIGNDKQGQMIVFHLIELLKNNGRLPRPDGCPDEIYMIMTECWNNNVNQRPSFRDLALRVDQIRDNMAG
Description: as §1, §2, §3, §4, §5

JAK3 = target: T3, JAK3 (Homo sapiens, UniProt P52333); assay: JAK tyrosine kinase inhibitory activity in the presence of 1 mM ATP (ELISA), JAK3
T3 construct: purchased Carna Biosciences, Inc
T3 sequence (P52333 1-1124): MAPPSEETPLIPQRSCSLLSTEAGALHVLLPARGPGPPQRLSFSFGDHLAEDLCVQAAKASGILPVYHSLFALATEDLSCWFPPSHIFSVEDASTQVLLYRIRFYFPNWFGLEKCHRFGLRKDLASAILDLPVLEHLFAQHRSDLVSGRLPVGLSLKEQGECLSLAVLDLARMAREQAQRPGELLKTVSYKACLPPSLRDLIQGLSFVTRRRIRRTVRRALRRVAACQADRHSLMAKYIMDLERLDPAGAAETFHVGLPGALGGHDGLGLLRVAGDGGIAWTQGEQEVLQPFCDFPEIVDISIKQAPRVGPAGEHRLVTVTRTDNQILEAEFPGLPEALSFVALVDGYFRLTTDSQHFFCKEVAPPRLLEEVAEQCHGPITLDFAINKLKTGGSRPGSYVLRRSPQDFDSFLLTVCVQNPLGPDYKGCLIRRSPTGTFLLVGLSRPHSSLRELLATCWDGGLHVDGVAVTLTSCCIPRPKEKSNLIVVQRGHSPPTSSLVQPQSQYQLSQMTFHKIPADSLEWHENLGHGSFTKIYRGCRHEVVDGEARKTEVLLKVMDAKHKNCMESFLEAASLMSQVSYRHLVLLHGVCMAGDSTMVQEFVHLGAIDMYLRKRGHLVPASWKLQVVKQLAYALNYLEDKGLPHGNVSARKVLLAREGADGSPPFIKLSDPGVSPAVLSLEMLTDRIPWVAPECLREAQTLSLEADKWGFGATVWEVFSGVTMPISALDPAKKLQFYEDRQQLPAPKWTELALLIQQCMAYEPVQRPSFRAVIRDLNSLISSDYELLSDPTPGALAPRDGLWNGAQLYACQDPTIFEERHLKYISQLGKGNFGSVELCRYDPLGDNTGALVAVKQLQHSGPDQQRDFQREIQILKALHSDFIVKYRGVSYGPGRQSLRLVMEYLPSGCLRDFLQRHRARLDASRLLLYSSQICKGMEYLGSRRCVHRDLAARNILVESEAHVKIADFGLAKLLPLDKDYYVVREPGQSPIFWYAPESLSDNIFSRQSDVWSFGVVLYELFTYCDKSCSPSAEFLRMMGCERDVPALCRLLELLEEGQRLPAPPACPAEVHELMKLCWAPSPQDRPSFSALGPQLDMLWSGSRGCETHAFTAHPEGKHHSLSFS
Description: as §1, §2, §3, §4, §5

T1 sequence (P23458 whole entry): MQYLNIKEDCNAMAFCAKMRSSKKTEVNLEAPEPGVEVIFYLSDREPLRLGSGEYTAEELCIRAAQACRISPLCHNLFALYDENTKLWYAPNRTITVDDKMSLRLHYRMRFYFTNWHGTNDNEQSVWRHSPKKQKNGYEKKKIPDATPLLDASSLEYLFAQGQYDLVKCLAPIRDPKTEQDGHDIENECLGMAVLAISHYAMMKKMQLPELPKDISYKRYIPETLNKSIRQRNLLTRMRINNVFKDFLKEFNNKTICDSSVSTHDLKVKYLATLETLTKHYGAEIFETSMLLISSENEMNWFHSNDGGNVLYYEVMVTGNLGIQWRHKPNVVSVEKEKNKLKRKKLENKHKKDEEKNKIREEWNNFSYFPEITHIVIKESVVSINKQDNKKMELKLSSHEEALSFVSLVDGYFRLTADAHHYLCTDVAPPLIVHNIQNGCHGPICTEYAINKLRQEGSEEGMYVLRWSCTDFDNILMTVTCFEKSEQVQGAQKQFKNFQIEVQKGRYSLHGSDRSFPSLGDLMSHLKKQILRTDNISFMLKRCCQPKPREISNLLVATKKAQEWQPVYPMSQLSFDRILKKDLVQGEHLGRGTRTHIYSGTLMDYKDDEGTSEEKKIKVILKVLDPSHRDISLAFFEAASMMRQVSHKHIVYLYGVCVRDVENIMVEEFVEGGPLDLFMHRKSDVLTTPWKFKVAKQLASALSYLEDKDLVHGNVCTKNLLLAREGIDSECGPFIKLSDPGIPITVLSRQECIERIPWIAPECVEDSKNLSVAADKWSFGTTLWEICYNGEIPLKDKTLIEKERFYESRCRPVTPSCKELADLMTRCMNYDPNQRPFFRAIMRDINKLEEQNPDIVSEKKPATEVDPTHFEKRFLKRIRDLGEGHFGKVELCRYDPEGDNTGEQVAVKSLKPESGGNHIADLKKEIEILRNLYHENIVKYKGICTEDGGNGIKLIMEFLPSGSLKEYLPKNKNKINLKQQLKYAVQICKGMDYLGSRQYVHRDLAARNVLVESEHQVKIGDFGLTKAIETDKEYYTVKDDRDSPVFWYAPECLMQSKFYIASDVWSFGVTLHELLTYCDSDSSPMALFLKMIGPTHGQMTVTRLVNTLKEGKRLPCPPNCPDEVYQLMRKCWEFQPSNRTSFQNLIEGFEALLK

| Structure (SMILES) | IC50 (JAK1) | IC50 (JAK2) | IC50 (JAK3) |
| --- | --- | --- | --- |
| Cc1c(N[C@@H](C)C2CC2)nc(-c2cnn3ccsc23)nc1C(=O)N1CCC(NC(=O)C(F)F)CC1 [Example 18, N-(1-{[6-{[(1S)-1-Cyclopropylethyl]amino}-5-methyl-2-(pyrazolo[5,1-b][1,3]thiazol-7-yl)pyrimidin-4-yl]carbonyl}piperidin-4-yl)-2,2-difluoroacetamide] | 310 nM | 2300 nM | 1700 nM |
| CO[C@H]1CCC[C@@H]1Nc1cc(C(=O)N2CCC(NC(=O)C3CC3)CC2)nc(-c2cnn3ccsc23)n1 [Example 19, N-(1-{[6-{[(1S,2S)-2-Methoxycyclopentyl]amino}-2-(pyrazolo[5,1-b][1,3]thiazol-7-yl)pyrimidin-4-yl]carbonyl}piperidin-4-yl)cyclopropanecarboxamide] | 710 nM | 4400 nM | 6500 nM |
| C[C@H](Nc1cc(C(=O)N2CCC(NC(=O)c3cccs3)CC2)nc(-c2cnn3ccsc23)n1)C1CC1 [Example 32, N-(1-{[6-{[(1S)-1-Cyclopropylethyl]amino}-2-(pyrazolo[5,1-b][1,3]thiazol-7-yl)pyrimidin-4-yl]carbonyl}piperidin-4-yl)thiophene-2-carboxamide] | 380 nM | 1800 nM | > 10000 nM |
| C[C@H](Nc1cc(C(=O)N2CCC(NC(=O)NC3CC3)CC2)nc(-c2cnn3ccsc23)n1)C1CC1 [Example 34, 1-Cyclopropyl-3-(1-{[6-{[(1S)-1-cyclopropylethyl]amino}-2-(pyrazolo[5,1-b][1,3]thiazol-7-yl)pyrimidin-4-yl]carbonyl}piperidin-4-yl)urea] | 350 nM | 1900 nM | 3000 nM |
| C[C@@H](C1CC1)N(C)c1cc(C(=O)N2CCC(Nc3ncccn3)CC2)nc(-c2cnn3ccsc23)n1 [Example 35, [6-{[(1S)-1-Cyclopropylethyl](methyl)amino}-2-(pyrazolo[5,1-b][1,3]thiazol-7-yl)pyrimidin-4-yl][4-(pyrimidin-2-ylamino)piperidin-1-yl]methanone] | 270 nM | 2400 nM | > 10000 nM |
| COCC(C)(C)Nc1cc(C(=O)N2CCC(NC(=O)C3CC3)CC2)nc(-c2cnn3ccsc23)n1 [Example 38, N-[1-({6-[(1-Methoxy-2-methylpropan-2-yl)amino]-2-(pyrazolo[5,1-b][1,3]thiazol-7-yl)pyrimidin-4-yl}carbonyl)piperidin-4-yl]cyclopropanecarboxamide] | 260 nM | 1200 nM | > 10000 nM |
| O=C(NC1CCN(C(=O)c2cc(OC3CCC3)nc(-c3cnn4ccsc34)n2)CC1)C1CC1 [Example 45, N-(1-{[6-(Cyclobutyloxy)-2-(pyrazolo[5,1-b][1,3]thiazol-7-yl)pyrimidin-4-yl]carbonyl}piperidin-4-yl)cyclopropanecarboxamide] | 310 nM | 5700 nM | > 10000 nM |

Stronger by IC50 (JAK1), values ahead:

| IC50 (JAK1) | IC50 (JAK2) | IC50 (JAK3) | Structure (SMILES) |
| --- | --- | --- | --- |
| 110 nM | 2500 nM | 7200 nM | CC(C)(C)CNc1cc(C(=O)N2CCC(NC(=O)C3CC3)CC2)nc(-c2cnn3ccsc23)n1 [Example 15, N-[1-({6-[(2,2-Dimethylpropyl)amino]-2-(pyrazolo[5,1-b][1,3]thiazol-7-yl)pyrimidin-4-yl}carbonyl)piperidin-4-yl]cyclopropanecarboxamide] |
| 230 nM | 5100 nM | 5800 nM | C[C@@H](COC(F)F)Nc1cc(C(=O)N2CCC(NC(=O)C3CC3)CC2)nc(-c2cnn3ccsc23)n1 [Example 17, N-(1-{[6-{[(2S)-1-(Difluoromethoxy)propan-2-yl]amino}-2-(pyrazolo[5,1-b][1,3]thiazol-7-yl)pyrimidin-4-yl]carbonyl}piperidin-4-yl)cyclopropanecarboxamide] |
| 140 nM | 1200 nM | 3000 nM | CC(C)OC(=O)NC1CCN(C(=O)c2cc(N[C@H](C)C(C)(C)C)nc(-c3cnn4ccsc34)n2)CC1 [Example 29, Propan-2-yl (1-{[6-{[(2R)-3,3-dimethylbutan-2-yl]amino}-2-(pyrazolo[5,1-b][1,3]thiazol-7-yl)pyrimidin-4-yl]carbonyl}piperidin-4-yl)carbamate] |
| 110 nM | 1400 nM | > 10000 nM | C[C@H](Nc1cc(C(=O)N2CCC(NC(=O)c3ccccc3)CC2)nc(-c2cnn3ccsc23)n1)C1CC1 [Example 30, N-(1-{[6-{[(1S)-1-Cyclopropylethyl]amino}-2-(pyrazolo[5,1-b][1,3]thiazol-7-yl)pyrimidin-4-yl]carbonyl}piperidin-4-yl)benzamide] |
| 86 nM | 620 nM | > 10000 nM | CC(C)(C)Nc1cc(C(=O)N2CCC(NC(=O)C3CC3)CC2)nc(-c2cnn3ccsc23)n1 [Example 36, N-(1-{[6-(tert-Butylamino)-2-(pyrazolo[5,1-b][1,3]thiazol-7-yl)pyrimidin-4-yl]carbonyl}piperidin-4-yl)cyclopropanecarboxamide] |
| 240 nM | 1600 nM | > 10000 nM | CC1(Nc2cc(C(=O)N3CCC(NC(=O)C4CC4)CC3)nc(-c3cnn4ccsc34)n2)CC1 [Example 37, N-[1-({6-[(1-Methylcyclopropyl)amino] 2 (pyrazolo[5,1-b][1,3]thiazol-7-yl)pyrimidin-4-yl}carbonyl)piperidin-4-yl]cyclopropanecarboxamide] |
| 140 nM | 1300 nM | 2900 nM | COC(=O)NC1CCN(C(=O)c2cc(N[C@H](C)C(C)(C)C)nc(-c3cnn4ccsc34)n2)CC1 [Example 39, Methyl (1-{[6-{[(2R)-3,3-dimethylbutan-2-yl]amino}-2-(pyrazolo[5,1-b][1,3]thiazol-7-yl)pyrimidin-4-yl]carbonyl}piperidin-4-yl)carbamate] |
| 130 nM | > 10000 nM | > 10000 nM | O=C(NC1CCN(C(=O)c2cc(OCC3CC3)nc(-c3cnn4ccsc34)n2)CC1)C1CC1 [Example 43, N-(1-{[6-(Cyclopropylmethoxy)-2-(pyrazolo[5,1-b][1,3]thiazol-7-yl)pyrimidin-4-yl]carbonyl}piperidin-4-yl)cyclopropanecarboxamide] |
| 66 nM | 1300 nM | > 10000 nM | CC(Oc1cc(C(=O)N2CCC(NC(=O)C3CC3)CC2)nc(-c2cnn3ccsc23)n1)C(C)(C)C (stereo not drawn) [Example 44, N-[1-({6-[(3,3-Dimethylbutan 2 yl)oxy]-2-(pyrazolo[5,1-b][1,3]thiazol-7-yl)pyrimidin-4-yl}carbonyl)piperidin-4-yl]cyclopropanecarboxamide] |
